Laboratory results from patent publication US6537770B1, “Assay for detecting phospho-N-acetylmuramyl-pentapeptide translocase activity” (priority 1999, dated 2003).

Experiments:
[1] = target: T1, translocase enzyme (Escherichia coli membranes) (Escherichia coli, UniProt P0A6W3); experiment: reversal of the translocase reaction (Lipid I back to the water soluble precursor) on addition of UMP; format: biochemical; settings: 1 μM UMP added after 10 minutes reaction, stopped after about 3-4 minutes
T1 construct: The membranes are prepared from spheroplast pellets which are commercially available; Each pellet contains a certain amount of E. coli Hfr H; endogenous in cells; host or cells: E. coli Hfr H membranes, prepared from commercially available spheroplast pellets
Text: The reaction catalysed by the enzyme translocase is known to be reversible. To show the reversible reaction, the enzyme reaction was continued for 10 mintues to form the radioactive product, undecaprenol-pyrophosphate-[2,3-^3H]propionate-N-acetylmuramylpentapeptide, Lipid I. This is seperated from its organic phase. Once the radioactive product is formed one set of reactions is stopped using the 2:1 pyridinium acetate and n-butanol mixture as described before. In a parallel set of reactions, 1 μM UMP is added. The reaction is then stopped after about 3-4 minutes. The lipid fraction can be extracted from both the sets of reactions. […] This indicates the reversal of Lipid I to the water soluble precursor.

[2] = target: T1, translocase enzyme (Escherichia coli membranes); experiment: phospho-N-acetylmuramyl-pentapeptide translocase assay with 3H-propionated UDP-MPP, butanol extraction and scintillation counting; format: biochemical; settings: Tunicamycin at 0.3 μg/ml; FIG. 2
Protocol: Eppendorf tubes were individually filled with a total of 40 μl of the reaction mixture each, initially. The reaction mixture consisted of an aqueous buffer solution of 100 mM Tris-HCl (Tris[hydroxymethyl]aminomethane hydrochloride), 25 mM magnesium chloride, 50 Mm of potassium chloride, 0.1% w/v Triton X-100, 8 μM of propionated non-radioactive UDP-MPP, 2 μM of ^3H-propionated UDP-MPP at room temperature, 10 μl of the enzyme at a concentration of 5 μg per ml and 17.5 μl of water. To this a solution of a test compound (e.g. Tunicamycin) of varying concentration is added. […] The reaction commences with the addition of the enzyme.
The Escherichia coli membranes, which serve as a source of the enzyme, were prepared in the following manner.
The membranes are prepared from spheroplast pellets which are commercially available. Each pellet contains a certain amount of E. coli Hfr H. The pellet is thawed overnight at 4° C. The pellet is weighed and the figure is multiplied by 7.5. […] The pellet is again resuspended in the same volume of 50 mM Tris-HCl buffer solution of pH 7.5 as calculated in the previous paragraph, containing, 20 μg/ml DNAse, 20 μg/ml RNAse, 1 mM magnesium chloride and 1 mM β-mercapto ethanol. […]
The product is extracted with saturated n-butanol and washed with 50 μl of water. It is then counted, 25-50 μl at a time on a scintillation counter.

T1 sequence (P0A6W3 whole entry): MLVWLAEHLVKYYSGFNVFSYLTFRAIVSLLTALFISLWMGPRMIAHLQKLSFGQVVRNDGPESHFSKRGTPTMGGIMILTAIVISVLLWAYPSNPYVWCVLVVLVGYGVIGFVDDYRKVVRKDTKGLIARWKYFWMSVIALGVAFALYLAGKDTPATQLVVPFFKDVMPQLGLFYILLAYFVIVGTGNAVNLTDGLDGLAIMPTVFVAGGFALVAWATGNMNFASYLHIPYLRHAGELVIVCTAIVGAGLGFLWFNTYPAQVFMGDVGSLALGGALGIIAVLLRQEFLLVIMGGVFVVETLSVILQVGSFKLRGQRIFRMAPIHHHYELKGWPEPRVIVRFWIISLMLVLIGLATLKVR

Compound	radioactive count in the organic phase (Lipid I) [1]	inhibition of translocase (rate, cpm versus time compared with control) [2]
O=c1ccn([C@@H]2O[C@H](COP(=O)(O)O)[C@@H](O)[C@H]2O)c(=O)[nH]1 [UMP]	reduced to basal levels	
Tunicamycin		antagonist of the translocase enzyme
